Results reported in patent US20250108038A1 (priority 2023, published 2025).
Read-outs that look alike come from different tables or passages of the source.

Legend:
OCT2 = target: T1, OCT2 (Homo sapiens, UniProt O15244); experiment: Uptake transporter inhibition assay, OCT2 (metformin)
T1 sequence (O15244 1-555): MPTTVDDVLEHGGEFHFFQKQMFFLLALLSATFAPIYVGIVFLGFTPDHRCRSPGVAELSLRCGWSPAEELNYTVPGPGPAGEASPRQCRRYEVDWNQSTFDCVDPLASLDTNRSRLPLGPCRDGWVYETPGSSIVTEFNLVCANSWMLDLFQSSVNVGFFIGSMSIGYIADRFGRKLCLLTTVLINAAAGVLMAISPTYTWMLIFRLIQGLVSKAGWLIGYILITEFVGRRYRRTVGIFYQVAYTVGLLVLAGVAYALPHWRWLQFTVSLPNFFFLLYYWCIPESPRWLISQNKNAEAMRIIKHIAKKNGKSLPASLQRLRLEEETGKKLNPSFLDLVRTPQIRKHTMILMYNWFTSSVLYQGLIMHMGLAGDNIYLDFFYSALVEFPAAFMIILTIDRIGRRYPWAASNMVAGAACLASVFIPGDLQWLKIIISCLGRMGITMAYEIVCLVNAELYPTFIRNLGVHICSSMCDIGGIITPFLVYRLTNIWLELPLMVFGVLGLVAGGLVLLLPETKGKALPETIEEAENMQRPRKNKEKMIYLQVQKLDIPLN
Protocol: Uptake experiments were performed using HEK293 cells stably expressing the respective uptake transporters. The assays were conducted according to the actual SOLVO uptake transporter assay protocols (PR-ASY-UPT-General Protocol for Uptake Transporter Inhibition Assays).
Cells were cultured at 37° C. in a humidified atmosphere containing 5% CO2 and were plated onto standard 96-well tissue culture plates.
Before the experiment, the medium was removed, and the cells were washed twice with 100 μL of pre-warmed (37° C.) assay buffer listed in Table 15. The cells were pre-incubated at 37° C. for 30 minutes in assay buffer containing the test article at appropriate concentrations (Table 16), appropriate solvents for solvent controls and the reference inhibitor for reference inhibitor wells. After the pre-incubation step solutions were removed. Uptake experiments were performed at 37° C. in 50 μL of assay buffer containing the probe substrate and the test article or solvent and controls.
After the experiment, cells were washed twice with 100 μL of appropriate cold buffer and lysed with 150 μL scintillation cocktail. Radiolabeled probe substrate transport was determined by liquid scintillation counting.
Uptake of the probe substrate in control cells provided background activity values for all data points.

Wistar rats = assay type: in vivo, Wistar rat; conditions: for % hit rate: nicotine 0.05-0.2 mg/kg sc, Compound I-4 0.1-3.0 mg/kg ip, Compound I-19 0.03-1.0 mg/kg ip; for % correct / Magazine Head Entries / Omissions / number of trials completed / perseverative responses / premature responses / response latencies (correct, incorrect) / reward latencies / timeout responses: same doses
Protocol: Animals were trained in eight automated 5C-SRTT operant chambers (Med Associates, St. Albans, VT, USA), controlled by MedPC software (Med Associates). Briefly, each operant chamber was equipped with 5 apertures containing a photocell beam to detect nose pokes and a lamp (2.8 W) that could be illuminated randomly at varying durations. Food pellets (45 mg chow pellet, BioServ, Frenchtown, NJ, USA) were delivered automatically to a magazine, located on the opposite wall to the nose pokes, that was also equipped with a light that turned on to indicate that a pellet had been dispensed. The house-light remained on for the entire session unless an error or omission occurred. Training sessions began with the delivery of a food reward and retrieval triggered the first trial. […] Training began with the stimulus duration set at 10 sec, a limited hold period of 5 sec and an ITI of 5 sec. […] Sessions ended when 40 minutes had lapsed or 100 trials had been completed.
Upon meeting the performance criteria, animals were assessed in the vSD version of the task where the following stimulus durations were presented in a pseudorandom manner: 0.3, 0.6 and 0.9 sec. Later, subjects were assessed in the vITI version where 2.5, 5.0 and 10.0 sec ITIs were employed in a pseudorandom manner. Performance parameters measured were: % hit ((# correct/(# correct+# incorrect including omissions))×100); % correct ((# correct/(# correct+# incorrect excluding omissions))×100); premature responses (# of nose-pokes into any aperture after trial initiation but before onset of the stimulus light); timeout responses (# of nose pokes into any aperture during a timeout period), perseverative responses (# of nose pokes occurring after the correct response had been made but before reward collection); # of food magazine head entries, omissions and total trials completed. The latency to correct response (time taken from the onset of the nose poke light stimulus to making the correct nose poke response), latency to incorrect response (time taken from onset of nose poke light stimulus to making the incorrect nose poke response), and latency to reward (i.e., the magazine latency, time taken from making a correct nose poke response to retrieving the reward from the magazine) was also recorded.
Drug doses and vehicle were administered in a pseudorandom fashion. Drug or vehicle sessions were performed 1-2 times per week with maintenance training (behavioral testing without drug or vehicle injections) interspersed.
All data were collated and entered into Microsoft Excel spreadsheets. The data were subsequently imported into StatView 5.0 for statistical analyses. One and two factor analysis of variance (ANOVA) tests were used with repeated measures when indicated, followed by Fisher LSD or Student Newman Keuls as post-hoc tests. All results were expressed as the mean (±S.E.M.). Differences between means from experimental groups were considered significant at the p<0.05 level. The statistical F values and degrees of freedom associated with the two factor ANOVA analyses are provided in the text of this report. Please refer to the statistical reports in the appendices for the values associated with one factor ANOVAs for the overall means and overall total values.

[1] = 0.14 μM nominal, 0.09 μM NSB corrected, follow-up assay
[2] = 1.24 μM nominal, 0.86 μM NSB corrected, follow-up assay
[3] = 10.00 μM nominal, 6.60 μM NSB corrected
[4] = 11.11 μM nominal, 7.89 μM NSB corrected, follow-up assay
[5] = 33.33 μM nominal, 24.33 μM NSB corrected, follow-up assay
[6] = 100.00 μM nominal, 77.00 μM NSB corrected
[7] = 100.00 μM nominal, 100.00 μM NSB corrected, follow-up assay
[8] = […] nominal, 1.89 μM NSB corrected, follow-up assay
[9] = 0.04 μM nominal, metformin, IC50 determination, Table 124
[10] = 0.12 μM nominal, metformin, IC50 determination, Table 124
[11] = 1.11 μM nominal, metformin, IC50 determination, Table 124
[12] = 3.00 μM nominal, metformin, Table 123
[13] = 10.00 μM nominal, metformin, IC50 determination, Table 124
[14] = 30.00 μM nominal, metformin, IC50 determination, Table 124
[15] = 30.00 μM nominal, metformin, Table 123

Clc1ccc(C2(OCC3OCCO3)c3ccccc3C3=NCCN32)cc1 (centres unmarked) [Compound I-19]
Relative inhibition (OCT2; [1]): 1% | Relative transporter specific accumulation (OCT2; [1]): 98.93 ± 6.26 % of control | Transporter specific accumulation (OCT2; [1]): 339.33 ± 6.18 cpm | Relative inhibition (OCT2; [2]): 19% | Relative transporter specific accumulation (OCT2; [2]): 81.44 ± 5.58 % of control | Transporter specific accumulation (OCT2; [2]): 279.33 ± 8.96 cpm | Relative inhibition (OCT2; [3]): 69% | Relative transporter specific accumulation (OCT2; [3]): 30.61 ± 3.54 % of control | Transporter specific accumulation (OCT2; [3]): 126.00 ± 14.46 cpm | Relative inhibition (OCT2; [4]): 60% | Relative transporter specific accumulation (OCT2; [4]): 39.65 ± 3.63 % of control | Transporter specific accumulation (OCT2; [4]): 136.00 ± 9.32 cpm | Relative inhibition (OCT2; [5]): 87% | Relative transporter specific accumulation (OCT2; [5]): 12.63 ± 3.35 % of control | Transporter specific accumulation (OCT2; [5]): 43.33 ± 11.20 cpm | Relative inhibition (OCT2; [6]): 98% | Relative transporter specific accumulation (OCT2; [6]): 1.78 ± 0.65 % of control | Transporter specific accumulation (OCT2; [6]): 7.33 ± 2.67 cpm | Relative inhibition (OCT2; [7]): 97% | Relative transporter specific accumulation (OCT2; [7]): 3.16 ± 1.38 % of control | Transporter specific accumulation (OCT2; [7]): 10.83 ± 4.69 cpm | maximum inhibition of OCT2-mediated metformin accumulation (OCT2; 2-concentration assay, 100 μM (Compound A 30 μM)): 98% | Maximum % inhibition (OCT2; OCT2, HEK293 cells, metformin (10 μM), NIO: no inhibition observed): 97% | Relative inhibition (OCT2; [8]): 29% | Relative transporter specific accumulation (OCT2; [8]): 70.94 ± 7.30 % of control | Transporter specific accumulation (OCT2; [8]): 243.33 ± 20.22 cpm | maximum inhibition of OCT2-mediated metformin accumulation (OCT2; follow-up assay): 97% | IC50 (OCT2; follow-up assay, NSB-corrected concentrations for Compound I-19): 8.95 µM | % hit rate (Wistar rats): dose-dependent decrease in the % hit rate | % correct (Wistar rats): no statistically significant dose-related effects | Magazine Head Entries (Wistar rats): decreased in a dose-dependent manner | Omissions (Wistar rats): increase in the number of omissions | number of trials completed (Wistar rats): decreases in the number of trials completed | perseverative responses (Wistar rats): very modest reduction in the number of perseverative responses | premature responses (Wistar rats): decrease in the number of premature responses | response latencies (correct, incorrect) (Wistar rats): very modest increases in the response latencies | reward latencies (Wistar rats): some increases in the reward latencies, but they were not statistically significant | timeout responses (Wistar rats): decrease in the number of premature responses, timeout responses, magazine head entries, and perseverative responses

OC1(c2ccc(Cl)cc2)c2ccccc2C2=NCCN21 (centres unmarked) [Compound A, 5-(4-chlorophenyl)-2,3-dihydroimidazo[1,2-b]isoindol-5-ol, reference compound]
IC50 (OCT2): 3.49 µM | Relative transporter specific accumulation (OCT2; [9]): 109.28 ± 6.45 % of control | Transporter specific accumulation (OCT2; [9]): 259.00 ± 13.36 cpm | Relative transporter specific accumulation (OCT2; [10]): 106.33 ± 3.85 % of control | Transporter specific accumulation (OCT2; [10]): 252.00 ± 5.57 cpm | Relative transporter specific accumulation (OCT2; [11]): 84.39 ± 4.06 % of control | Transporter specific accumulation (OCT2; [11]): 200.00 ± 7.72 cpm | Relative transporter specific accumulation (OCT2; [12]): 51.42 ± 3.71 % of control | Transporter specific accumulation (OCT2; [12]): 150.67 ± 6.96 cpm | Relative transporter specific accumulation (OCT2; [13]): 25.88 ± 3.39 % of control | Transporter specific accumulation (OCT2; [13]): 61.33 ± 7.84 cpm | Relative transporter specific accumulation (OCT2; [14]): 9.42 ± 0.99 % of control | Transporter specific accumulation (OCT2; [14]): 22.33 ± 2.26 cpm | Relative transporter specific accumulation (OCT2; [15]): 13.54 ± 1.38 % of control | Transporter specific accumulation (OCT2; [15]): 39.67 ± 3.38 cpm | inhibition at 10 µM (OCT2; human, Maximum % inhibition, OCT2, HEK293 cells, metformin (10 μM), NIO: no inhibition observed): 91% | inhibition at 0.04 μM (OCT2; human, Relative Inhibition, 0.04 μM nominal, metformin, IC50 determination, Table 124): -9% | inhibition at 0.12 μM (OCT2; human, Relative Inhibition, 0.12 μM nominal, metformin, IC50 determination, Table 124): -6% | inhibition at 1.11 μM (OCT2; human, Relative Inhibition, 1.11 μM nominal, metformin, IC50 determination, Table 124): 16% | inhibition at 10 µM (OCT2; human, Relative Inhibition, 10.00 μM nominal, metformin, IC50 determination, Table 124): 74% | inhibition at 30 μM (OCT2; human, Relative Inhibition, 30.00 μM nominal, metformin, IC50 determination, Table 124): 91% | inhibition at 3 μM (OCT2; human, Relative inhibition, 3.00 μM nominal, metformin, Table 123): 49% | inhibition at 30 μM (OCT2; human, Relative inhibition, 30.00 μM nominal, metformin, Table 123): 86%

COCCOC1(c2ccc(Cl)cc2)c2ccccc2C2=NCCN21 (centres unmarked) [Compound I-4]
% hit rate (Wistar rats): decrease in the % hit rate | % correct (Wistar rats): no statistically significant dose-related effects | Magazine Head Entries (Wistar rats): decreases in the number of premature responses, timeout responses, and magazine head entries | Omissions (Wistar rats): increase in the number of omissions | number of trials completed (Wistar rats): decreases in the number of trials completed | perseverative responses (Wistar rats): no statistically significant effects on perseverative responses | premature responses (Wistar rats): the higher 3 doses of Compound I-4 were associated with a decrease | response latencies (correct, incorrect) (Wistar rats): increases in the response latencies | reward latencies (Wistar rats): some increases in the reward latencies, but they were not statistically significant | timeout responses (Wistar rats): decreases in the number of premature responses, timeout responses, and magazine head entries
